Data on 10 molecules can be found in publication PMC10890666, “Targeted Affinity Purification and Mechanism of Action of Angiotensin-Converting Enzyme (ACE) Inhibitory Peptides from Sea Cucumber Gonads” (Marine Drugs, 2024).

In general, IC50 refers to the concentration at which inhibition is half-maximal.

Like-named read-outs stand apart in the source and are kept apart here.

Assay [1] has as its system angiotensin-converting enzyme (ACE). The conditions noted are these: cited from earlier work; for IC50: read-out: IC50 (ACE inhibition). From the text: The immobilization of ACE using various immobilization media is a promising affinity purification method to obtain shorter peptides from diverse sources. […] Feng et al. used a novel affinity medium Fe3O4@ZIF-90 and combined this method with reversed-phase high-performance liquid chromatography (RP-HPLC) and MALDI-TOF mass spectrometry to purify ... || Collectively, low-molecular-weight fractions isolated from SCGHs using the ultrafiltration method allowed us to obtain small peptides with potent ACE inhibitory activity. ACE inhibitory molecules are typically characterized by their small and short-chain peptide structures. In this study, a combination of ultrafiltration separation and SCGH effectively eliminated substances above 3 kDa. We further isolated the active components by utilizing an ACE enzyme affinity column, which facilitated the removal of other nonspecifically bound substances and yielded the target peptides. […] For instance, the experimentally purified short peptide DDQYHIF features Phe at the C-terminus, while HDWWKER has basic amino acids Arg and His at the C- and N-termini, respectively. Sun et al. reported that peptides with Arg at the C-termi ...

Assay [2] has as its target T1, angiotensin-I-converting enzyme (ACE) (UniProt P12822 34-1260).
T1 sequence (looked up): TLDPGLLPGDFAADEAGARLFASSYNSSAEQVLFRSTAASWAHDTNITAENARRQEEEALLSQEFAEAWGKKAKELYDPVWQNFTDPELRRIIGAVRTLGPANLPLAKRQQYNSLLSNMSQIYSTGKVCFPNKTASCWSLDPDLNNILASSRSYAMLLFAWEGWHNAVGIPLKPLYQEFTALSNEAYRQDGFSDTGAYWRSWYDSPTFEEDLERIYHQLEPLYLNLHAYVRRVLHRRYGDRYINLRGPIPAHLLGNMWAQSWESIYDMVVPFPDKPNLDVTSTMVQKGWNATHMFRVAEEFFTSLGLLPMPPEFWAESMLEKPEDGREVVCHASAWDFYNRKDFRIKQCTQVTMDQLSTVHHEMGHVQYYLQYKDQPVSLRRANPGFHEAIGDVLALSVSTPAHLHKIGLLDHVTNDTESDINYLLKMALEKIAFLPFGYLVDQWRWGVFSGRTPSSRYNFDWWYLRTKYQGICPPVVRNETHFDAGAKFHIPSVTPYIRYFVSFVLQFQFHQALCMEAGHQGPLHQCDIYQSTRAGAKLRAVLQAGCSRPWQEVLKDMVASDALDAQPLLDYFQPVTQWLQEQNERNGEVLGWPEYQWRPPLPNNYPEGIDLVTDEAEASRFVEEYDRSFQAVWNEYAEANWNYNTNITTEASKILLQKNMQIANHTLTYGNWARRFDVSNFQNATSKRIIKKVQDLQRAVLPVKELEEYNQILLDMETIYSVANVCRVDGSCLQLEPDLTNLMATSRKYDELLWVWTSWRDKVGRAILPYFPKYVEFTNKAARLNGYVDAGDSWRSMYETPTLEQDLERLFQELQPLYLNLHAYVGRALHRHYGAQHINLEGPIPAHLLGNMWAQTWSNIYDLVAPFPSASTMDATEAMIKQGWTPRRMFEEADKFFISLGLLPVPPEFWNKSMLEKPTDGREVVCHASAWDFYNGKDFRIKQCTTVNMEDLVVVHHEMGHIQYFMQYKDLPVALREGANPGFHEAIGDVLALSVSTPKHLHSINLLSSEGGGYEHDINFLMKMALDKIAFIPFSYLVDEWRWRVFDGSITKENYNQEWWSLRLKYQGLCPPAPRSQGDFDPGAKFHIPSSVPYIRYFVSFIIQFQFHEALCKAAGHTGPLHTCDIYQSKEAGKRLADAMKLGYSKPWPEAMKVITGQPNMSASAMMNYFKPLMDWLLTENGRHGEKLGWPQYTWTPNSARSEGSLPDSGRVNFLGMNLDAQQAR
Kind of assay: cell-based or functional assay.

Setting [3] is: from Ulva intestinalis, ref [32].

KNFL: the “ACE inhibition (in words)” value in assay [1] (from Undaria pinnatifida, ref [8]) is “ACE inhibitory peptide”. Take LLYQEPVLGPVR: the “ACE inhibition (in words)” value in assay [1] (from casein hydrolysate, ref [7]) was “potent ACE inhibitory peptide”.

On to GMKCA, for which, in assay [1] (ref [9]), the “ACE inhibition (in words)” value is “ACE inhibitory peptide” and the concentration for half-maximal inhibition (IC50) was 45.7 µM. Take EIYR: the IC50 in assay [1] (from sea cucumber gonads, ref Zhong et al. (2018)) is 348 µM.

With MELVLR, the IC50 in assay [1] (setting [3]) is 237 µM. Regarding “TLRFALHGME [novel peptide from Takifugu flavidus hydrolysate]”, the IC50 in assay [1] (from Takifugu flavidus hydrolysate, ref [17]) was 93.5 µM. On to FGMPLDR, for which, in assay [1] (setting [3]), the IC50 is 219 µM.

B1: HDWWKER (peptide)
peptide: HDWWKER
For the molecule B1, the “IC50 of ACE inhibition (HHL substrate, HPLC)” value (from here on “IC50 of ACE inhibition”) in assay [2] came out at 584 µM.

B2: DDQYHIF (peptide)
peptide: DDQYHIF
Regarding B2, the “IC50 of ACE inhibition” value in assay [2] was found to be 334 µM.

B3: THDWWKER (peptide)
peptide: THDWWKER
Consider B3, for which, in assay [2], the “IC50 of ACE inhibition” value was 1290 µM.
